Data: US8546389B2 (priority 2010, dated 2013)
Where two headings read alike, the source gives them in different places.

Tests used:
[1] = target: genotype 3a (VRL-69) NS5bΔ21 polymerase (Hepatitis C virus genotype 3a, UniProt Q81258); test: HCV polymerase inhibition assay, genotype 3a; format: biochemical, HCV genotype 3a (VRL-69)
Procedure: HCV polymerase reactions were carried out using a modified method of Howe et al., Antimicrobial Agents and Chemotherapy 2004 48(12): 4813-4821. Reactions contained a final concentration of, 0.5% DMSO, 50 nM, 1b (BK) NS5bΔ21, 20 mM Tris-HCl pH 7.5, 5 mM MgCl2, 5 mM MnCl2, 3 mM DTT, 0.05% BSA, 0.2 U/μL RNasin, 10 μg/mL Poly(rC) template, GTP (at Km) and 0.05 μCi/μL ^33P-GTP in a total reaction volume of 50 μL. Compounds were tested in a three fold dilution series, for example starting from 50 μM. Reactions were initiated with the addition of GTP and terminated after 1 hour with 50 μL ice cold 0.2 M EDTA. Terminated reactions were transferred to DEAE 96-well filter plates, unincorporated nucleotides washed from the filters and 50 μL scintillation fluid added prior to reading on a scintillation counter. Similarly, a genotype 3a (VRL-69) NS5bΔ21 polymerase enzyme assay was conducted using essentially the same method.
The compound concentration that reduced ^33P-GTP incorporation by 50% (IC50) was calculated using non-linear regression.

[2] = system: subgenomic genotype 2a replicon cell line; test: HCV replicon assay, genotype 2a; format: cell-based, HCV genotype 2a
Procedure: (§1) A genotype 1b (Con 1) subgenomic replicon cell line based on Blight et al., Science 2000 290: 1972-1974, modified to express a Renilla luciferase reporter gene was used to assess antiviral activity of test compounds. Cell cultures were maintained in a sub-confluent state in DMEM with glutamine, 10% heat-inactivated foetal bovine serum (FBS) and G418 (Geneticin®).
(§2) For assay, cells were seeded at a density of 7000 cells/well into 96 well tissue culture trays in culture media lacking G418. Compounds were tested in a three fold dilution series, for example starting from 50 uM. After 72 hours incubation at 37° C. and 5% CO2, Renilla luciferase activity was quantified via the Promega Renilla Luciferase or Renilla-Glo™ Luciferase Assay Systems (Promega corporation. The same method was employed for replicon assays using subgenomic genotype 1a and 2a replicon cell lines with a seeding cell density of 5000 cells/well for the 2a cell lines.
(§3) The compound concentration that reduced luciferase activity by 50% (EC50) was calculated using non-linear regression.

[3] = system: genotype 1b (Con 1) subgenomic replicon cell line; test: HCV replicon assay, genotype 1b (Renilla luciferase); format: cell-based, HCV genotype 1b (Con 1); details: genotype 1b replicon
Summary of the method: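 Subgenomic replicon cells expressing Renilla luciferase (1b Con1; 1a and 2a lines by the same method) seeded at 7000 cells/well (5000 for 2a) without G418, exposed to 3-fold compound dilutions for 72 h at 37 °C. Luciferase activity measured; EC50 by non-linear regression.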

1b (BK) NS5bΔ21 = 1b (BK) NS5bΔ21 (Hepatitis C virus genotype 1b (isolate BK) (HCV), UniProt P26663); test: HCV polymerase inhibition assay, genotype 1b; format: biochemical, HCV genotype 1b (BK)
1b (BK) NS5bΔ21, sequence (P26663 2420-2989): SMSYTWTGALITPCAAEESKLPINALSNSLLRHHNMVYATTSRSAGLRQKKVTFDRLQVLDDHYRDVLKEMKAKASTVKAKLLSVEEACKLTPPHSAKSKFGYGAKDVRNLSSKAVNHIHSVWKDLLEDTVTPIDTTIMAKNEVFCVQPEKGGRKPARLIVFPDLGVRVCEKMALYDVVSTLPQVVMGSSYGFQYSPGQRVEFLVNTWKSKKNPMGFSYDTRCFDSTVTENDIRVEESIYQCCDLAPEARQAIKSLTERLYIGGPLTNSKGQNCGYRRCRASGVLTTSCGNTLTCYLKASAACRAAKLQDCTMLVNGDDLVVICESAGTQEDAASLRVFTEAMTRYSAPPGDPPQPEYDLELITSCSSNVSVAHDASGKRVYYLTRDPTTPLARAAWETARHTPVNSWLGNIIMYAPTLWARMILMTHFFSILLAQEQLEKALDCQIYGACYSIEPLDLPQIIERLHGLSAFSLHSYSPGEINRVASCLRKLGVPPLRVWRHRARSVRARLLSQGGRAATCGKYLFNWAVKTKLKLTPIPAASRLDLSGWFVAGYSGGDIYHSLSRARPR
Summary of the method: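 NS5bΔ21 (50 nM) in Tris-HCl pH 7.5 with Mg2+/Mn2+, DTT, BSA, 0.5% DMSO, poly(rC) template, GTP at Km and ^33P-GTP; 3-fold compound dilutions. GTP-started reactions stopped with EDTA after 1 h; incorporation read by DEAE filter scintillation counting. IC50 by non-linear regression; 3a enzyme run the same way.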

[4] = system: subgenomic genotype 1a replicon cell line; test: HCV replicon assay, genotype 1a; format: cell-based, HCV genotype 1a
Procedure: as §1, §2, §3

[5] = genotype 3a, read-out: 3a NS5b polymerase IC50
[6] = Hepatitis C virus, 72 hours, luciferase, read-out: genotype 1b EC50 (range class)
[7] = Hepatitis C virus, read-out: Replicon 1b EC50
[8] = 1b (BK) NS5bΔ21, 33P-GTP incorporation, read-out: 1b polymerase IC50 (range class)
[9] = genotype 1b, read-out: 1b NS5b polymerase IC50

genotype 3a (VRL-69) NS5bΔ21 polymerase, sequence (Q81258 whole entry, looked up, stated change not applied): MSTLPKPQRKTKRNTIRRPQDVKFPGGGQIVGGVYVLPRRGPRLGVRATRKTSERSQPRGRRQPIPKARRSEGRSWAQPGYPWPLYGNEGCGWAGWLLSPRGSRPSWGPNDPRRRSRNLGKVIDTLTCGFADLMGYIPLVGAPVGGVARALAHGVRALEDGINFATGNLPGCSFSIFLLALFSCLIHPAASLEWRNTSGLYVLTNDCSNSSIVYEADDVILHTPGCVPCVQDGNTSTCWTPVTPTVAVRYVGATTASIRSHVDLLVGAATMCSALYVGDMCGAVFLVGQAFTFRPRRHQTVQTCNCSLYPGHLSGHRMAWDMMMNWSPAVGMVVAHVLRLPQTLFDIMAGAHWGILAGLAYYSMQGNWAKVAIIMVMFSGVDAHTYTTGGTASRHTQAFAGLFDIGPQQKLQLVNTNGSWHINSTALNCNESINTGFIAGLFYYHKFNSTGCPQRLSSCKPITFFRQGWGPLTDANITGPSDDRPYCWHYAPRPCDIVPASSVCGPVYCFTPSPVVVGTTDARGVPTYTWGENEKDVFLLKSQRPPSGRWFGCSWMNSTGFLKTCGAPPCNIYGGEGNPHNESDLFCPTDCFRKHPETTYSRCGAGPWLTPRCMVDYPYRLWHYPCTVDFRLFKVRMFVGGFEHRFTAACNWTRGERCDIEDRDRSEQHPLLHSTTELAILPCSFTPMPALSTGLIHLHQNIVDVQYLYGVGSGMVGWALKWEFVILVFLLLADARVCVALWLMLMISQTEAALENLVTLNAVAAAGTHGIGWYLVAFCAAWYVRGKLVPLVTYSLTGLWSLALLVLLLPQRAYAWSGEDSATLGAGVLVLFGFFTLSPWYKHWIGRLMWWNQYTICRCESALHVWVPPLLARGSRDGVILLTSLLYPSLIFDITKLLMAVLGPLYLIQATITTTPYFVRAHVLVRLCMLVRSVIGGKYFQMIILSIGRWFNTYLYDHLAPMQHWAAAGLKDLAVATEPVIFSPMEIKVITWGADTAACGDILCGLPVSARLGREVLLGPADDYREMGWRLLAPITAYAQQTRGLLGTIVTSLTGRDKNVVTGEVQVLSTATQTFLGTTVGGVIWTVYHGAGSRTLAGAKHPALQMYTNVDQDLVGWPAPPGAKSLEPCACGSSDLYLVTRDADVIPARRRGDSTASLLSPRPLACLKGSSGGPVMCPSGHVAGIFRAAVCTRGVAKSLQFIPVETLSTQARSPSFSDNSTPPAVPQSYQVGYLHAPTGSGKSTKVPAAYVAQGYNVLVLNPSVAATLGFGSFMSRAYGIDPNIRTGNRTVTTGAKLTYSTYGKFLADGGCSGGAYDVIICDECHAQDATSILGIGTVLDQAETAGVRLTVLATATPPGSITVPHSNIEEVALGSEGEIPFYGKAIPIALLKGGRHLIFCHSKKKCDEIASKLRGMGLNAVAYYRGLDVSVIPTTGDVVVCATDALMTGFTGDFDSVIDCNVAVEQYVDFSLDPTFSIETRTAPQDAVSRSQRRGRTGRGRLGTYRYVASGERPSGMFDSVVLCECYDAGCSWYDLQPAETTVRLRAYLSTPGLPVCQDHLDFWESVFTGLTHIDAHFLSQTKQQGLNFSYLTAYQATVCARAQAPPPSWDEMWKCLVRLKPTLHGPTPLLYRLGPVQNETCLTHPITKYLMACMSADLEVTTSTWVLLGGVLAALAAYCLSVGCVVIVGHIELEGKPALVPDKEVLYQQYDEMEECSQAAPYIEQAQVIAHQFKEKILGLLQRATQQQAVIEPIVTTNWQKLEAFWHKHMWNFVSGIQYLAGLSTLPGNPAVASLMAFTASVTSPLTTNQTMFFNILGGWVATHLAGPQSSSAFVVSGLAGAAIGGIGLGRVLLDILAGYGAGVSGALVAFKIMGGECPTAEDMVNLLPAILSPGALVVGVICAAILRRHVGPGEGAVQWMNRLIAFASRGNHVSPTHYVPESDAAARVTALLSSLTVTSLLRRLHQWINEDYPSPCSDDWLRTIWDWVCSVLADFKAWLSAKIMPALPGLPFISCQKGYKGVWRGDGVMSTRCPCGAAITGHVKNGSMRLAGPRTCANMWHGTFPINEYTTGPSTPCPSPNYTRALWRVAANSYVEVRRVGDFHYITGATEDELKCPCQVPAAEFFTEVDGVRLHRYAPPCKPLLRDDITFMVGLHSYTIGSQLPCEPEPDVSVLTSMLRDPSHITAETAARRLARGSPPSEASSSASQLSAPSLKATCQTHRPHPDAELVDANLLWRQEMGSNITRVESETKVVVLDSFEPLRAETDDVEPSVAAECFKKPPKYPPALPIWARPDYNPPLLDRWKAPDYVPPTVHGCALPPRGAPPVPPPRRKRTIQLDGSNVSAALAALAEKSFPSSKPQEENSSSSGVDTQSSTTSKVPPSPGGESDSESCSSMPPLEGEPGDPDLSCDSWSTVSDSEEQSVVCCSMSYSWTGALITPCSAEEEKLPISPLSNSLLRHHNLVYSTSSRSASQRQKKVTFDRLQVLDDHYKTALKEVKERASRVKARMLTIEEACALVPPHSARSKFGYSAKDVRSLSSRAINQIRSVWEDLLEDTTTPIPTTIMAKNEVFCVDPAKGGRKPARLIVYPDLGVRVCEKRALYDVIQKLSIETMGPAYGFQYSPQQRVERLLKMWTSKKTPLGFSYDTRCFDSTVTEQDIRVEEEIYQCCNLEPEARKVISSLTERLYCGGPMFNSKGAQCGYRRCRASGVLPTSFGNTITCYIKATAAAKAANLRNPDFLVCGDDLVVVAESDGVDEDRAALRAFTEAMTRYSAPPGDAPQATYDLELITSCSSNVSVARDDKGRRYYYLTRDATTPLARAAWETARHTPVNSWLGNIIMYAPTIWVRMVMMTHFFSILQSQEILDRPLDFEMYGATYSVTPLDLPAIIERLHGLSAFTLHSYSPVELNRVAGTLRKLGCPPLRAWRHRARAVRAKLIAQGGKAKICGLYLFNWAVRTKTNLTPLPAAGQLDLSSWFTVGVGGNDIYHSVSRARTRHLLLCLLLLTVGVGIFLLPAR

SMILES	IC50 [1, 5] [nM]	EC50 ([2]; Hepatitis C virus) [nM]	EC50 [3, 6] [nM]	EC50 [3, 7] [nM]	IC50 (1b (BK) NS5bΔ21; [8]) [nM]	IC50 (1b (BK) NS5bΔ21; [9]) [nM]	EC50 ([4]; Hepatitis C virus) [nM]	EC50 [2] [nM]	EC50 ([3]; read-out: Replicon 1b EC50) [nM]	EC50 [4] [nM]	IC50 [1] [nM]
CNC(=O)c1c2cc(C3CC3)c(N(CCCO)S(C)(=O)=O)cc2nn1-c1ccc(Br)cc1 [Compound 4, 2-(4-bromophenyl)-5-cyclopropyl-6-[(3-hydroxypropyl)(methylsulfonyl)amino]-N-methyl-2H-indazole-3-carboxamide]	10	940	< 990	90	< 990	170	210				
CNC(=O)c1c2cc(C3CC3)c(N(CCCO)S(C)(=O)=O)cc2nn1-c1ccc(Nc2ccccc2F)cc1 [Compound 5, 5-cyclopropyl-2-{4-[(2-fluorophenyl)amino]phenyl}-6-[(3-hydroxypropyl)(methylsulfonyl)amino]-N-methyl-2H-indazole-3-carboxamide]	40	320	< 990	130	< 990	70	50				
CNC(=O)c1c2cc(C3CC3)c(N(CCCO)S(C)(=O)=O)cc2nn1-c1ccc(Nc2ccc(F)cc2)cc1 [Compound 21]	40	340	< 990	460	< 990	40	290				
CCN(c1cc2nn(-c3ccc(Nc4ccc(F)cc4)cc3)c(C(=O)NC)c2cc1C1CC1)S(C)(=O)=O [Compound 22]	20	340	< 990	70	< 990	110	380				
CCN(c1cc2nn(-c3ccc(Oc4ccccc4F)cc3)c(C(=O)NC)c2cc1C1CC1)S(C)(=O)=O [Compound 28]	20	200	< 990	100	< 990	120	740				
CNC(=O)c1c2cc(C3CC3)c(N(CCCO)S(C)(=O)=O)cc2nn1-c1ccc(Cl)cc1 [Compound 54, 2-(4-Chlorophenyl-1)-5-cyclopropyl-6-[3-hydroxypropyl(methylsulfonyl)amino]-N-methyl-indazole-3-carboxamide]	20					360		1030	100	300	
CNC(=O)c1c2cc(C3CC3)c(N(CCCNC(C)=O)S(C)(=O)=O)cc2nn1-c1ccc(Br)cc1 [Compound 59, 6-{[3-(Acetylamino)propyl](methylsulfonyl)amino}-2-(4-bromophenyl)-5-cyclopropyl-N-methyl-2H-indazole-3-carboxamide]	50	1430	< 990	670	< 990	260	300				
CNC(=O)c1c2cc(C3CC3)c(N(CCCNC(=O)C3CCC3)S(C)(=O)=O)cc2nn1-c1ccc(Br)cc1 [Compound 62]	50					180		2860	170	80	
CNC(=O)c1c2cc(C3CC3)c(N(CCCNC(=O)CCC(=O)OC)S(C)(=O)=O)cc2nn1-c1ccc(Br)cc1 [Compound 66, Methyl 4-[(3-{[2-(4-bromophenyl)-5-cyclopropyl-3-(methylcarbamoyl)-2H-indazol-6-yl](methylsulfonyl)amino}propyl)amino]-4-oxobutanoate]		360	< 990	120	< 990	320	20				80
CNC(=O)c1c2cc(C3CC3)c(N(CCC3COC(C)(C)OC3)S(C)(=O)=O)cc2nn1-c1ccc(Br)cc1 [Compound 95]	40					70		180	50	70	
C=CCN(c1cc2nn(-c3ccc(Br)cc3)c(C(=O)NC)c2cc1C1CC1)S(C)(=O)=O [Compound 98]	30					100		460	80	160	
CNC(=O)c1c2cc(C3CC3)c(N(CCCSC)S(C)(=O)=O)cc2nn1-c1ccc(Br)cc1 [Compound 99, 2-(4-bromophenyl)-5-cyclopropyl-N-methyl-6-[3-methylsulfanylpropyl(methylsulfonyl)amino]-2H-indazole-3-carboxamide]	20	1080	< 990	70	< 990	90	430				
CNC(=O)c1c2cc(C3CC3)c(N(CCCN3CCCCC3)S(C)(=O)=O)cc2nn1-c1ccc(Oc2ccc(F)cc2)cc1 [Compound 111]	260	2050	< 990	340	1000 to 9990	1170	2920				
CNC(=O)c1c2cc(C3CC3)c(N(CCN3CCOCC3)S(C)(=O)=O)cc2nn1-c1ccc(Oc2ccc(F)cc2)cc1 [Compound 112]	40	2730	< 990	130	< 990	410	1900				
CCN(c1cc2nn(-c3ccc(NCC(C)C)cc3)c(C(=O)NC)c2cc1C1CC1)S(C)(=O)=O [Compound 117]	70	150	< 990	70	< 990	430	340				
CNC(=O)c1c2cc(C3CC3)c(N(CCCNC(=O)c3ncoc3C)S(C)(=O)=O)cc2nn1-c1ccc(Br)cc1 [Compound 174]		1730	< 990	110	< 990		60				
CNC(=O)c1c2cc(C3CC3)c(N(CC3CC3)S(C)(=O)=O)cc2nn1-c1ccc(Cl)cc1 [Compound 246]			< 990		< 990						
CNC(=O)c1c2cc(C3CC3)c(N(CCF)S(C)(=O)=O)cc2nn1-c1ccc(Cl)cc1 [Compound 247]			< 990		< 990						
CNC(=O)c1c2cc(C3CC3)c(N(CC3CCOCC3)S(C)(=O)=O)cc2nn1-c1ccc(Cl)cc1 [Compound 249]			< 990		< 990						
CNC(=O)c1c2cc(C3CC3)c(N(CCC3CCOCC3)S(C)(=O)=O)cc2nn1-c1ccc(Cl)cc1 [Compound 250]			< 990		< 990						
CNC(=O)c1c2cc(C3CC3)c(N(CCCNC(=O)[C@H]3CCCC[C@H]3C(=O)O)S(C)(=O)=O)cc2nn1-c1ccc(Br)cc1 [Compound 251]			< 990		< 990						
CNC(=O)c1c2cc(C3CC3)c(N(CC3CCOC3)S(C)(=O)=O)cc2nn1-c1ccc(Cl)cc1 (stereo not drawn) [Compound 252]			< 990		< 990						
CNC(=O)c1c2cc(C3CC3)c(N(CC(F)F)S(C)(=O)=O)cc2nn1-c1ccc(Br)cc1 [Compound 253]			< 990		< 990						
CNC(=O)c1c2cc(C3CC3)c(N(CC(F)F)S(C)(=O)=O)cc2nn1-c1ccc(Cl)cc1 [Compound 254]			< 990		< 990						
CCN(c1cc2nn(-c3ccc(NC)nc3)c(C(=O)NC)c2cc1C1CC1)S(C)(=O)=O [Compound 255]			< 990		< 990						
CNC(=O)c1c2cc(C3CC3)c(N(CCC3CCOC3)S(C)(=O)=O)cc2nn1-c1ccc(Br)cc1 (stereo not drawn) [Compound 256]			< 990		< 990						
CNC(=O)c1c2cc(C3CC3)c(N(CCC3CCOC3)S(C)(=O)=O)cc2nn1-c1ccc(Cl)cc1 (stereo not drawn) [Compound 257]			< 990		1000 to 9990						
CCN(c1cc2nn(-c3ccc(Br)cc3)c(C(=O)NC)c2cc1C1CC1)S(=O)(=O)C(F)(F)F [Compound 258]			1000 to 9990		1000 to 9990						
